Laboratory results reported in patent US8852554B2, “Radiolabelled PDE10 ligands” (Janssen Pharmaceutica NV, priority 2009, dated 2014).
Values joined by “and” are separate entries in the source; they are usually repeats but may differ in a detail not shown here. Identical values can stand only once.

Assay: Biodistribution studies of the 18F tracers in rats
Assay type: in vivo, male Wistar rats
Settings: rat, i.v.
Procedure: Biodistribution studies were carried out in healthy male Wister rats (body weight 200-500 g) at 2 min, 30 min and 60 min post injection (p.i.) (n=3/time point). For |^18F|B-4 only the 2 min and 30 min time points were studied. […] Blood and major organs were collected in tared tubes and weighed. The radioactivity in blood, organs and other body parts was measured using an automated gamma counter. The distribution of radioactivity in different parts of the body at different time points p.i. of the tracer was calculated and expressed as percentage of injected dose (% ID), and as percentage of injected dose per gram tissue (% ID/g) for the selected organs. % ID is calculated as cpm in organ/total cpm recovered. For calculation of total radioactivity in blood, blood mass was assumed to be 7% of the body mass.

SMILES: Cc1cccc(COc2ccc(-c3nn(CC[18F])cc3-c3ccncc3)cc2)n1 [[^18F]B-1]
- % ID/g normalized for body weight, Cerebellum (30 min p.i.): 0.041 ± 0.01 % ID/g × body wt. in kg
- % ID/g normalized for body weight, Cerebrum + Cerebellum (30 min p.i.): 0.04 ± 0.01 % ID/g × body wt. in kg
- % ID/g normalized for body weight, Cerebrum total (30 min p.i.): 0.042 ± 0.01 % ID/g × body wt. in kg
- % ID/g normalized for body weight, Cortex (30 min p.i.): 0.057 ± 0.01 % ID/g × body wt. in kg
- % ID/g normalized for body weight, Heart (30 min p.i.): 0.07 ± 0.01 % ID/g × body wt. in kg
- % ID/g normalized for body weight, Hippocampus (30 min p.i.): 0.027 ± 0.01 % ID/g × body wt. in kg
- % ID/g normalized for body weight, Kidneys (30 min p.i.): 0.17 ± 0.01 % ID/g × body wt. in kg
- % ID/g normalized for body weight, Liver (30 min p.i.): 1.02 ± 0.13 % ID/g × body wt. in kg
- % ID/g normalized for body weight, Lungs (30 min p.i.): 0.08 ± 0.02 % ID/g × body wt. in kg
- % ID/g normalized for body weight, Rest of cerebrum (30 min p.i.): 0.039 ± 0.01 % ID/g × body wt. in kg
- % ID/g normalized for body weight, Spleen + Pancreas (30 min p.i.): 0.11 ± 0.02 % ID/g × body wt. in kg
- % ID/g normalized for body weight, Striatum (30 min p.i.): 0.070 ± 0.01 % ID/g × body wt. in kg
- % ID/g, Blood (30 min p.i.): 0.12 ± 0.01 % ID/g
- % ID/g, Cerebellum (30 min p.i.): 0.145 ± 0.020 % ID/g
- % ID/g, Cerebrum + Cerebellum (30 min p.i.): 0.15 ± 0.02 % ID/g
- % ID/g, Cerebrum total (30 min p.i.): 0.148 ± 0.014 % ID/g
- % ID/g, Cortex (30 min p.i.): 0.204 ± 0.016 % ID/g
- % ID/g, Heart (30 min p.i.): 0.24 ± 0.03 % ID/g
- % ID/g, Hippocampus (30 min p.i.): 0.096 ± 0.012 % ID/g
- % ID/g, Kidneys (30 min p.i.): 0.61 ± 0.11 % ID/g
- % ID/g, Liver (30 min p.i.): 3.72 ± 0.87 % ID/g
- % ID/g, Lungs (30 min p.i.): 0.27 ± 0.04 % ID/g
- % ID/g, Rest of cerebrum (30 min p.i.): 0.138 ± 0.013 % ID/g
- % ID/g, Spleen + Pancreas (30 min p.i.): 0.39 ± 0.04 % ID/g
- % ID/g, Striatum (30 min p.i.): 0.250 ± 0.029 % ID/g
- radioactivity concentration, all studied brain regions (30 min p.i.): ≤ 0.07 % ID/g corrected for body weight
- striatum/blood ratio (from % ID/g normalized for body weight) (30 min p.i.): 2.05
- striatum/cerebellum ratio (from % ID/g normalized for body weight) (30 min p.i.): 1.72
- striatum/hippocampus ratio (from % ID/g normalized for body weight) (30 min p.i.): 2.59
- % ID in liver and intestines (60 min p.i.): 54 % ID
- % ID in the urinary system (60 min p.i.): ~2.6 % ID
- % ID, Blood (60 min p.i.): 2.2 % ID and 2.16 ± 0.4 % ID
- % ID, Carcass (60 min p.i.): 23.68 ± 3.9 % ID
- % ID, Cerebellum (60 min p.i.): 0.023 ± 0.005 % ID
- % ID, Cerebrum total (60 min p.i.): 0.145 ± 0.032 % ID
- % ID, Cortex (60 min p.i.): 0.018 ± 0.004 % ID
- % ID, Heart (60 min p.i.): 0.16 ± 0.0 % ID
- % ID, Hippocampus (60 min p.i.): 0.005 ± 0.001 % ID
- % ID, Intestines (60 min p.i.): 19.61 ± 1.5 % ID
- % ID, Kidneys (60 min p.i.): 1.38 ± 0.1 % ID
- % ID, Liver (60 min p.i.): 34.49 ± 8.0 % ID
- % ID, Lungs (60 min p.i.): 0.26 ± 0.1 % ID
- % ID, Rest of cerebrum (60 min p.i.): 0.116 ± 0.027 % ID
- % ID, Spleen + Pancreas (60 min p.i.): 0.43 ± 0.1 % ID
- % ID, Stomach (60 min p.i.): 17 % ID and 16.74 ± 4.6 % ID
- % ID, Striatum (60 min p.i.): 0.006 ± 0.002 % ID
- % ID, Urine (60 min p.i.): 1.22 ± 0.2 % ID
- % ID/g normalized for body weight, Blood (60 min p.i.): 0.03 ± 0.01 % ID/g × body wt. in kg
- % ID/g normalized for body weight, Cerebellum (60 min p.i.): 0.025 ± 0.01 % ID/g × body wt. in kg
- % ID/g normalized for body weight, Cerebrum + Cerebellum (60 min p.i.): 0.03 ± 0.01 % ID/g × body wt. in kg
- % ID/g normalized for body weight, Cerebrum total (60 min p.i.): 0.033 ± 0.01 % ID/g × body wt. in kg
- % ID/g normalized for body weight, Cortex (60 min p.i.): 0.036 ± 0.01 % ID/g × body wt. in kg
- % ID/g normalized for body weight, Heart (60 min p.i.): 0.05 ± 0.01 % ID/g × body wt. in kg
- % ID/g normalized for body weight, Hippocampus (60 min p.i.): 0.023 ± 0.02 % ID/g × body wt. in kg
- % ID/g normalized for body weight, Kidneys (60 min p.i.): 0.15 ± 0.01 % ID/g × body wt. in kg
- % ID/g normalized for body weight, Liver (60 min p.i.): 0.81 ± 0.13 % ID/g × body wt. in kg
- % ID/g normalized for body weight, Lungs (60 min p.i.): 0.05 ± 0.02 % ID/g × body wt. in kg
- % ID/g normalized for body weight, Rest of cerebrum (60 min p.i.): 0.034 ± 0.01 % ID/g × body wt. in kg
- % ID/g normalized for body weight, Spleen + Pancreas (60 min p.i.): 0.08 ± 0.02 % ID/g × body wt. in kg
- % ID/g normalized for body weight, Striatum (60 min p.i.): 0.051 ± 0.01 % ID/g × body wt. in kg
- % ID/g, Blood (60 min p.i.): 0.10 ± 0.02 % ID/g
- % ID/g, Cerebellum (60 min p.i.): 0.079 ± 0.021 % ID/g
- % ID/g, Cerebrum + Cerebellum (60 min p.i.): 0.10 ± 0.03 % ID/g
- % ID/g, Cerebrum total (60 min p.i.): 0.105 ± 0.035 % ID/g
- % ID/g, Cortex (60 min p.i.): 0.113 ± 0.031 % ID/g
- % ID/g, Heart (60 min p.i.): 0.15 ± 0.04 % ID/g
- % ID/g, Hippocampus (60 min p.i.): 0.074 ± 0.050 % ID/g
- % ID/g, Kidneys (60 min p.i.): 0.46 ± 0.02 % ID/g
- % ID/g, Liver (60 min p.i.): 2.53 ± 0.23 % ID/g
- % ID/g, Lungs (60 min p.i.): 0.16 ± 0.05 % ID/g
- % ID/g, Rest of cerebrum (60 min p.i.): 0.107 ± 0.030 % ID/g
- % ID/g, Spleen + Pancreas (60 min p.i.): 0.26 ± 0.07 % ID/g
- % ID/g, Striatum (60 min p.i.): 0.162 ± 0.042 % ID/g
- striatum/blood ratio (from % ID/g normalized for body weight) (60 min p.i.): 1.66
- striatum/cerebellum ratio (from % ID/g normalized for body weight) (60 min p.i.): 2.06
- striatum/hippocampus ratio (from % ID/g normalized for body weight) (60 min p.i.): 2.24
- % ID in the carcass (at all time points examined): ~28 % ID
- maximum striatum-to-cerebellum ratio (biodistribution 2-60 min p.i.): about 2
